Experimental data: patent publication US4689331A, “Substituted 2-pyridinyl benzimidazoles, and their use for inhibiting gastric acid secretion” (priority 1984, dated 1987)

Experiments:
gastric acid secretion = assay: Inhibiting effect in vivo on gastric acid secretion in conscious dog; settings: conscious chronic gastric fistula dog, oral by stomach tube, histamine-induced secretion, 1 h after dosing, peak inhibitory effect
Method: II. Inhibiting effect in vivo on gastric acid secretion in conscious dog
Chronic gastric fistula dogs were used. These dogs have been surgically provided with a gastric cannula in the stomach and a duodenal fistula used for direct intraduodenal administration of test compounds. Following a 4 week's recovery period after surgery, tests were performed once a week on each dog. Food and water were withdrawn 18 hours before each test.
The test compound dissolved in 5% ethanol in 0.5% Methocel® (90 HG, 15.000, Dow Chem Corp.) was administered orally by using a stomach tube. After 1 hour gastric acid secretion was induced by continuous infusion of histamine at individual doses (400-600 nmol/kg, h), resulting in approx. 90% of maximal secretion of gastric acid. The gastric juice was collected by free flow from the gastric cannula in consecutive 30 minutes samples for 2 hours. The samples were titrated to pH 7.0 with 0.1M NaOH using a Radiometer automatic titrator and the acid output was calculated. The percent inhibition of acid secretion was calculated by comparing in each dog the acid output in the test to the acid output in control tests when only the vehicle was given. The peak inhibitory effect for each compound was determined.

[1] = test system: ethanol-induced gastric lesions; assay: In vivo cytoprotective effect: effect on ethanol-induced gastric lesions in the rat; set-up: species or system rat (female Spraque-Dawley); settings: oral, 30 min before 1 ml absolute ethanol, dose giving 50% reduction of total lesion length vs control (11.0 cm); for ED50: Rattus norvegicus, read-out: III Rat Cytoprot. ED50
Method: III. In vivo cytoprotective effect: Effect on ethanol-induced gastric lesions in the rat
Two groups of female Spraque-Dawley rats (190-220 g) were used, one for the test compound and one for the control experiment. Food, but not water, was removed 24 h before the experiments.
The animals in the test group were treated orally with the test compound dissolved in 10% ethanol in 0.5% Methocel® immediately before use and the animals in the control group were given the vehicle only in a dose of 2.5 ml/kg.
Thirty minutes later the rats were given orally 1 ml of absolute ethanol (a standard agent for inducing gastric mucosal lesions).
Sixty minutes later the rats were killed by carbon dioxide asphyxiation, their stomachs dissected out and the gastric mucosae were examined for the presence of necrotic lesions. The total lengths of the lesions in the stomachs were measured in the test group and in the control group, in both cases treated thirty minutes before with ethanol.
The ED50 -value represents the dose of the compound giving 50% reduction of the total lengths of lesions compared to the total lengths of lesions of the control experiment (11.0 cm).

gastric H^+,K^+ -ATPase = target: T1, gastric H^+,K^+ -ATPase (Sus scrofa, UniProt P19156); assay: In vitro inhibition of gastric H+,K+-ATPase; assay type: biochemical; settings: hog gastric membrane, pH 7.4, 30 min incubation, negative log of concentration (M) giving 50% inhibition
T1 construct: from tissue; host or cells: hog stomach, purified membrane fraction (GI fraction of Saccomani et al. 1977)
Method: I. In vitro inhibition of gastric H^+,K^+ -ATPase
Hog gastric H^+,K^+ -ATPase was purified according to Saccomani et al., Biochim. Biophys. Acta 465, 311-330, 1977. 10 μg of membrane protein (GI-fraction in the reference listed above) was incubated with 2 mmol/l of piperazine-N,N'bis-(2-ethane sulfonic acid) buffer pH 7.4 and the test compound in concentrations 10^-7 -10^-4 M in a final volume of 1 ml. (The test compound was dissolved in methanol. Aliquots of these stock solutions were diluted to a final methanol concentration below 1%, which on its own had no effect on the enzyme activities.) After 30 minutes of incubation, the remaining H^+,K^+ -ATPase activity was determined, according to Wallmark et al., Biochim. Biophys. Acta, 728, 31-38, 1983. A dose-response curve was constructed and the concentration at half-maximal inhibition (IC50) could be determined.
pIC50 is the negative logarithm of the concentration (in M) of the test compound giving 50% inhibition.

T1 sequence (P19156 2-1034 limits assumed): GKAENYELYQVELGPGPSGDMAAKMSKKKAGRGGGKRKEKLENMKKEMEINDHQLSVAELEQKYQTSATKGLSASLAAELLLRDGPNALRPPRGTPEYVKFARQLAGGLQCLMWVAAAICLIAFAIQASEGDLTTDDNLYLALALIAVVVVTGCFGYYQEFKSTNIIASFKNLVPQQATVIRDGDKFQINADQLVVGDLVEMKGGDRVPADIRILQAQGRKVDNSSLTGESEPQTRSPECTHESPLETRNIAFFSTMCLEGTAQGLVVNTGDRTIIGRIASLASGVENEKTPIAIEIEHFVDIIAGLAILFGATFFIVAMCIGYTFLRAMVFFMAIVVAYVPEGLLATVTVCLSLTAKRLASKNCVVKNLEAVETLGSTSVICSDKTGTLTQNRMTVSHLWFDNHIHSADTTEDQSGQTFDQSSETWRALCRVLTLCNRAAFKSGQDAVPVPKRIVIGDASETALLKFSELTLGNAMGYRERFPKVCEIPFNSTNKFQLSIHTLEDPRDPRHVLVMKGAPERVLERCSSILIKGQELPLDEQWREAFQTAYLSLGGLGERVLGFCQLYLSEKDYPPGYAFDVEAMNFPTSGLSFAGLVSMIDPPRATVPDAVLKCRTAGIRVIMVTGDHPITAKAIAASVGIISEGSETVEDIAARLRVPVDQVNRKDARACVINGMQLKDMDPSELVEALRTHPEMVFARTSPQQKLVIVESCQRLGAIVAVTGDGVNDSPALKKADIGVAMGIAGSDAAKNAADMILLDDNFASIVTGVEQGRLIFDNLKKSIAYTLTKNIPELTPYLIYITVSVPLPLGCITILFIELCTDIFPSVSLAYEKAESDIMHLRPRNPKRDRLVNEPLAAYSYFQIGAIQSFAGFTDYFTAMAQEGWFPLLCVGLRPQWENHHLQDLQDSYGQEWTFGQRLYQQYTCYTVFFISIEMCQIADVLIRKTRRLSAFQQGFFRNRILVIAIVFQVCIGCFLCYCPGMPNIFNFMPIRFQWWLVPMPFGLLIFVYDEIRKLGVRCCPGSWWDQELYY
T1 sequence (P18434 whole entry partner): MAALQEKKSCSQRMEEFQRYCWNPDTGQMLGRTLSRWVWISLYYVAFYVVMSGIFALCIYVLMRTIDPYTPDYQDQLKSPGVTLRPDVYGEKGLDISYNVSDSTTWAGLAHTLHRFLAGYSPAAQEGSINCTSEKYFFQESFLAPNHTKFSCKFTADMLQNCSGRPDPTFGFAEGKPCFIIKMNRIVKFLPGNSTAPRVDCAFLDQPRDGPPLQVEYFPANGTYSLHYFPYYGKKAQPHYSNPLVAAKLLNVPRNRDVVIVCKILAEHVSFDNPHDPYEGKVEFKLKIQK

COc1ccc2[nH]c(-[n+]3cc(C)c(OC)c(C)c3CSSCCO)nc2c1.[O-][Cl+3]([O-])([O-])[O-] [Example 1, 3,5-dimethyl-4-methoxy-2-[(2-hydroxyethyl)dithiomethyl]-1-(5-methoxy-2-benzimidazolyl)-pyridiniumperchlorate] was tested, and the “II Dog Gast. acid secr. inhib. ED50” value (gastric acid secretion) was 6 µmol/kg, the “III Rat Cytoprot. ED50” value [1] was 15 µmol/kg and the “I Enzyme pIC50” value (gastric H^+,K^+ -ATPase) was 5.0.

COc1ccc2[n-]c(-[n+]3cc(C)c(OC)c(C)c3CSSCC(=O)O)nc2c1 [Example 7] was tested, and the ED50 [1] was 30 µmol/kg and the IC50 (gastric H^+,K^+ -ATPase; read-out: I Enzyme pIC50 (converted)) was 3.16e-05 M.

Work on COc1c(C)c[n+](-c2nc3ccccc3[n-]2)c(CSC#N)c1C [Example 14] yielded an ED50 (gastric acid secretion; Canis lupus familiaris, read-out: II Dog Gast. acid secr. inhib. ED50) of 9 µmol/kg and an ED50 [1] of 20 µmol/kg.
